In US20040096356A1, “Assay device for determining analytes in a liquid dairy product” (priority 1997, published 2004):

Target: T1, enzyme R39 (soluble exocellular D-alanyl-D-alanine carboxypeptidase produced by Actinomadura R39) (Actinomadura sp., UniProt P39045)
T1 construct: soluble exocellular D-alanyl-D-alanine carboxypeptidase produced by Actinomadura R39, obtained by the procedure described in J.-M. Frere et al; made in house; host or cells: Actinomadura R39 (natural producer, secreted enzyme)
T1 sequence (P39045 50-515): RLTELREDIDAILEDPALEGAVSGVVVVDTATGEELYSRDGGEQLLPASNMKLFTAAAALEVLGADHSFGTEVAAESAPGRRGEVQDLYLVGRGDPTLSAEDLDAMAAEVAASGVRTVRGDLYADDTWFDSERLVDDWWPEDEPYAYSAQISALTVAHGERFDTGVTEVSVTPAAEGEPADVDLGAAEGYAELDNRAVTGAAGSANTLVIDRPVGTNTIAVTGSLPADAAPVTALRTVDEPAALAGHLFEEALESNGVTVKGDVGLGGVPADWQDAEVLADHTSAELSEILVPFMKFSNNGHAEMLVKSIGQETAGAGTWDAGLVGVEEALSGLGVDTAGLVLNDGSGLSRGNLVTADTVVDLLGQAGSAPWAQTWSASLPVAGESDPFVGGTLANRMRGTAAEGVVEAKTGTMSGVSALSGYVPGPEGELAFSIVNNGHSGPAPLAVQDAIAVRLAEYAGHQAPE
Assay: Test 1, rapid test (5 minutes): strip test for β-lactam antibiotics in milk using enzyme R39
Format: binding
Details: for Intensity 1st band: scale 0 to 10, reference band 6, 47° C., 3 min incubation + 2 min migration
Description: The identifier used in this example is soluble exocellular D-alanyl-D-alanine carboxypeptidase produced by Actinomadura R39, obtained by the procedure described in J.-M. Frere et al., Antimicrobial Agents and Chemotherapy, 18(4), 506-510 (1980).
250 μl of an aqueous solution of enzyme R39 having a concentration of 1 mg/ml are dialysed for 24 hours against 500 ml of HNM buffer (Hepes 10 mM, pH 8, NaCl 10 mM, MgCl2 5 mM). To this dialysed solution of enzyme R39 are then added 2 ml of bicarbonate buffer (0.1 M sodium bicarbonate, pH 9) and 250 μl of a solution of N-hydroxysuccinimide 6-(biotinamido)caproic ester having a concentration of 5 mg/ml in anhydrous DMF. This solution is stirred gently in the LABINCO stirrer for tubes on a rotary axis (available from VEL, Belgium) at a rate of 2 revolutions/minute for 3 hours at room temperature and away from light. The solution thus obtained is dialysed against the HNM buffer ([…]) for 24 hours. In this way a solution of biotinylated enzyme R39 is obtained which is diluted in HNM-BSA buffer (Hepes 500 mM; pH 8, NaCl 500 mM, MgCl2 250 mM, BSA 10 mg/ml) to a concentration of 100 μg of enzyme R39 per ml of buffer. This solution is stored at −20° C.
As the marker use is made of particles of gold having a diameter of 40 nm on which a goat anti-biotin antibody has been deposited in the form of suspensions in a 2 mM aqueous sodium tetraborate solution, with a pH of 7.2, stabilized by 0.1% of sodium azide (available from British Biocell (Ref. GAB40)). The optical density of these suspensions at 520 nm is approximately 10 and the protein concentration is approximately 24 μg/ml.
The biotinylated enzyme R39 solution prepared in Example 2.2.1 is diluted 25 times with the HNM-BSA buffer (Hepes 500 mM, pH 8, NaCl 500 mM, MgCl2 250 mM, BSA 10 mg/ml). At room temperature, 17.5 parts by volume of this dilute biotinylated enzyme R39 solution, 9.27 parts by volume of the gold particle suspension used to label the enzyme R39 and 6 parts by volume of reference gold particle suspension are mixed (see Example 2.3).
The first capture substance makes it possible to fix the identifiers coupled with the free markers present in excess relative to the quantity of antibiotic present in the sample.
Assay devices containing membranes (2), (3) and (4) are used, assembled in accordance with the procedure described in Example 1.1. The membrane (3) of these devices carries on the proximal side the capture substance described in Example 2.4.1. and on the distal side the capture substance described in Example 2.4.2. The capture substances were deposited in accordance with the procedure described in Example 1.2.
Seven samples of milk are prepared, containing 0; 2; 4; 5; 6; 8 and 10 ppb, respectively, of penicillin G. Each of these solutions is then analysed as follows.
An aliquot is taken of 200 μl of milk sample and […] of solution A prepared in Example 2.2.3, and is placed in an Eppendorf tube. This mixture is incubated at 47° C. for 3 minutes. An assay device is then placed vertically in the Eppendorf tube such that the first end of the assay device is in contact with the mixture. The mixture is allowed to migrate over the assay device while the assembly is incubated at 47° C. for 2 minutes.
An intensity value ranging from 0 to 10 is awarded to the bands detected, the value 10 being given to the most intense band and the value 0 being given to the least intense band. On this scale, a value 6 is awarded to the reference band. The intensity of the signal observed in the first detection band is inversely proportional to the quantity of penicillin G present in the sample.
In this example, the test is considered to be positive when the first band has an intensity which is lower than that of the reference band. The results shown in Table 1 indicate that this test makes it possible to detect in 5 minutes down to 4 ppb of penicillin G in a milk sample.

With `CC1(C)S[C@@H]2[C@H](NC(=O)Cc3ccccc3)C(=O)N2[C@H]1C(=O)O` [Penicillin G, penicillin G] the “Intensity 1st band” value (2 ppb penicillin G in milk) was 8, the “Intensity 1st band” value (4 ppb penicillin G in milk) was 5 and the “Intensity 1st band” value (5 ppb penicillin G in milk) was 3. The “Intensity 1st band” value (6 ppb penicillin G in milk) was 2, the “Intensity 1st band” value (8 ppb penicillin G in milk) was 1 and the “Intensity 1st band” value (10 ppb penicillin G in milk) was 0. For the same molecule, the “lowest concentration detected in a milk sample” value (in 5 minutes, positive when first band is less intense than reference band) was 4 ppb.
